One block for each molecule: values may come before it. Non-standard residues stand in square brackets, D forms with d. Residues, ends and D or L forms follow the SMILES beside them. ξ: configuration not given here. *: point of attachment. Acetyl(1,8-naphthalimido) = O=C1c2cccc3cccc(c23)C(=O)N1CC(=O)*; X2 = O=C1c2cccc3c(N4CCCCC4)ccc(c23)C(=O)N1CC(=O)*; ξY = NC(Cc1ccc(O)cc1)C(=O)O; ξE = NC(CCC(=O)O)C(=O)O
Assays:
[1] = Fluorescence in co-solvents of water and dimethyl sulfoxide (aggregation-induced emission); assay type: physicochemical; settings: for fluorescence intensity with increase of the volume ratio of water: aggregation-induced emission; for color of observed fluorescence / emission wavelength: water/dimethyl sulfoxide co-solvent
Description: Continuing in FIG. 4, which illustrates a fluorescence intensity and an emission wavelength of the water-soluble peptide fluorescence material of formula (III-1) in co-solvents having different proportions of water and dimethyl sulfoxide. In Experimental Example 401, 402, 403, 404, 405, 406, 407, 408, 409, 410 and 411, water respectively has 0, 10, 20, 30, 40, 50, 60, 70, 80, 90 and 100% of a total volume of the co-solvent. […] As such, no significant fluorescence marker is shown, so it is difficult to observe apparent fluorescence visually. […] Given the above, the fluorescence intensity of the water-soluble peptide fluorescence material of formula (III-1) is increased corresponding to the increase of the volume ratio of water, which is also referred as aggregation-induced emission (AIE). In addition, the water-soluble peptide fluorescence material of formula (III-1) has the emission wavelength of about 400 nm, so the observed fluorescence has a color of blue violet.
Continuing in FIG. 9, which illustrates a fluorescence intensity and an emission wavelength of the water-soluble peptide fluorescence material of formula (III-23) in co-solvents having different proportions of water and dimethyl sulfoxide. In Experimental Examples 901, 902, 903, 904, 905, 906, 907, 908, 909 and 910, water respectively has 0, 10, 20, 30, 40, 50, 60, 70, 80 and 90% of a total volume of the co-solvent. […] Given the above, the fluorescence intensity of the water-soluble peptide fluorescence material of formula (III-23) is increased corresponding to the increase of the volume ratio of water and has a phenomenon of aggregation-induced emission in water. In addition, the water-soluble peptide fluorescence material of formula (III-23) has the emission wavelength of about 550 nm, so the observed fluorescence has a color of green.
FIG. 12 illustrates a fluorescence intensity and an emission wavelength of the water-soluble peptide fluorescence material of formula (III-28) in co-solvents having different proportions of water and dimethyl sulfoxide. In Experimental Example 1201, 1202, 1203, 1204, 1205, 1206, 1207, 1208, 1209, 1210 and 1211, water respectively has 0, 10, 20, 30, 40, 50, 60, 70, 80, 90 and 99% of a total volume of the co-solvent. […] As such, no significant fluorescence marker is shown, so it is difficult to observe apparent fluorescence visually. […] Given the above, the fluorescence intensity of the water-soluble peptide fluorescence material of formula (III-28) is increased corresponding to the increase of the volume ratio of water and has a phenomenon of aggregation-induced emission in water. In addition, the water-soluble peptide fluorescence material of formula (III-28) has the emission wavelength of about 400 nm, so the observed fluorescence has a color of violet. FIG. 13 depicts a ratio of the fluorescence intensity between Experimental Examples 1202 to 1211 and Experimental Example 1201, at the emission wavelength of 400 nm.
FIG. 15 illustrates a fluorescence intensity and an emission wavelength of the water-soluble peptide fluorescence material of formula (III-30) in co-solvents having different proportions of water and dimethyl sulfoxide. In Experimental Example 1501, 1502, 1503, 1504, 1505, 1506, 1507, 1508, 1509, 1510 and 1511, water respectively has 0, 10, 20, 30, 40, 50, 60, 70, 80, 90 and 100% of a total volume of the co-solvent. […] As such, no significant fluorescence marker is shown, so it is difficult to observe apparent fluorescence visually. […] Accordingly, the fluorescence intensity of the water-soluble peptide fluorescence material of formula (III-30) is increased corresponding to the increase of the volume ratio of water and has a phenomenon of aggregation-induced emission in water. In addition, the water-soluble peptide fluorescence material of formula (III-30) has the emission wavelength of about 400 to 425 nm, so the observed fluorescence has a color of blue violet. […]

[2] = Fluorescence intensity and emission wavelength at different pH values; assay type: physicochemical; settings: for color of fluorescence / emission peak: pH 5; for pH value of the highest fluorescence intensity: pH 10 to 3 tested; for fluorescence intensity: pH 10 to 6
Description: In Experimental Examples 210, 220, 230, 240, 250, 260, 270 and 280, the above water-soluble peptide fluorescence material is respectively placed in environments having a pH value of 10, 9, 8, 7, 6, 5, 4 and 3 for testing. In Experimental Examples 210 to 230, the water-soluble peptide fluorescence material is respectively placed in environments having the pH value of 10, 9 and 8.
Continuing in FIG. 5, which illustrates a fluorescence intensity and an emission wavelength of the water-soluble peptide fluorescence material of formula (III-10) at different pH values. In Experimental Examples 510, 520, 530, 540, 550, 560, 570 and 580, the water-soluble peptide fluorescence material of formula (III-10) is respectively placed in environments having a pH value of 10, 9, 8, 7, 6, 5, 4 and 3 for testing. In Experimental Examples 510 to 560, the water-soluble peptide fluorescence material is placed in environments having the pH value of 10 to 5, and two emission peaks are shown in FIG. 5. […] Then, the pH value is further decrease to 4 (Experimental Example 570) and 3 (Experimental Example 580), and only the emission peak at about 400 nm is remained, so the observed fluorescence has a color of purple in Experimental Examples 570 and 580. Therefore, the water-soluble peptide fluorescence material of formula (III-10) is able to detect and mark locations of acidic cells by change of the color.
Continuing in FIG. 7, which illustrates a fluorescence intensity and an emission wavelength of the water-soluble peptide fluorescence material of formula (III-21) at different pH values. In Experimental Examples 710, 720, 730, 740, 750, 760, 770 and 780, the water-soluble peptide fluorescence material of formula (III-21) is respectively placed in environments having a pH value of 10, 9, 8, 7, 6, 5, 4 and 3 for testing. In Experimental Examples 710 to 750, the water-soluble peptide fluorescence material is placed in environments having the pH value of 10 to 6. […] However, the fluorescence intensity of Experimental Examples 780 is decreased when the pH value is decreased from 4 to 3.
Continuing in FIG. 8, which illustrates a fluorescence intensity and an emission wavelength of the water-soluble peptide fluorescence material of formula (III-22) at different pH values. In Experimental Examples 810, 820, 830, 840, 850, 860, 870 and 880, the water-soluble peptide fluorescence material of formula (III-22) is respectively placed in environments having a pH value of 10, 9, 8, 7, 6, 5, 4 and 3 for testing. In Experimental Examples 810 to 850, the water-soluble peptide fluorescence material is respectively placed in environments having the pH value of 10 to 6. […] In addition, the fluorescence intensity of Experimental Example 860 (pH=5) is 90 times of the fluorescence intensity of Experimental Example 810 […], which represents that the water-soluble peptide fluorescence material has obvious light-emitting interval and easily to identify and detect positions of the acidic cells.
FIG. 10 illustrates a fluorescence intensity and an emission wavelength of the water-soluble peptide fluorescence material of formula (III-23) at different pH values. In Experimental Examples 1010, 1020, 1030, 1040, 1050, 1060, 1070 and 1080, the water-soluble peptide fluorescence material of formula (III-23) is respectively placed in environments having a pH value of 10, 9, 8, 7, 6, 5, 4 and 3 for testing. In Experimental Examples 1010 to 1050, the water-soluble peptide fluorescence material is respectively placed in environments having the pH value of 10 to 6. […] The water-soluble peptide fluorescence material not only provides obvious marker, but also achieves the same effect of the fluorescence at a low concentration, and thereby reduces the costs.
FIG. 11 illustrates a fluorescence intensity and an emission wavelength of the water-soluble peptide fluorescence material of formula (III-27) at different pH values. […]

Compound: O=C(CN1C(=O)c2cccc3cccc(c23)C1=O)NC(Cc1ccccc1)C(=O)O (centres unmarked) [III-1]
fluorescence intensity with increase of the volume ratio of water [1]: increased
fluorescence intensity ([1]; water 0 to 70% of co-solvent volume): low fluorescence intensity
fluorescence intensity ([1]; water 80%): 50 fluorescent units
fluorescence intensity ([1]; water 90%): 100 fluorescent units
fluorescence intensity ([1]; water 100%): about 650 fluorescent units
color of observed fluorescence [1]: blue violet
emission wavelength [1]: about 400 nm

Compound: O=C(CN1C(=O)c2cccc3cccc(c23)C1=O)NCC(=O)NC(Cc1ccccc1)C(=O)O (centres unmarked) [III-10]
color of observed fluorescence ([2]; pH 4 and 3): purple
emission peak (only one remained) ([2]; pH 4 and 3): about 400 nm
color of observed fluorescence ([2]; pH 10 to 5): mixed light of green light and purple light
emission peak (first) ([2]; pH 10 to 5): about 400 nm
emission peak (other) ([2]; pH 10 to 5): about 500 nm

Compound: O=C(O)CCC(NC(=O)[C@H](Cc1ccccc1)NC(=O)CN1C(=O)c2cccc3c(N4CCCCC4)ccc(c23)C1=O)C(=O)O (some centres unmarked) [III-21]
color of fluorescence [2]: green
emission peak [2]: about 550 nm
pH value of the highest fluorescence intensity [2]: 4
fluorescence intensity [2]: low fluorescence intensities
change of fluorescence intensity ([2]; pH decreased from 4 to 3): decreased
change of fluorescence intensity ([2]; pH decreased from 5 to 4): further increased
change of fluorescence intensity ([2]; pH decreased to 5): significantly increased

Compound: O=C(O)C[C@H](NC(=O)[C@H](CC(=O)O)NC(=O)[C@H](Cc1ccccc1)NC(=O)CN1C(=O)c2cccc3c(N4CCCCC4)ccc(c23)C1=O)C(=O)O [III-22]
ratio of fluorescence intensity Experimental Example 860 (pH=5) to Experimental Example 810 (pH=1) [2]: 90 times
color of fluorescence [2]: yellow
emission peak [2]: about 575 nm
pH value of the highest fluorescence intensity [2]: 5
fluorescence intensity [2]: low fluorescence intensities
change of fluorescence intensity ([2]; pH decreased from 4 to 3): slightly increased
change of fluorescence intensity ([2]; pH decreased from 5 to 4): decreased
change of fluorescence intensity ([2]; pH decreased to 5): significantly increased

Continued, values first:

fluorescence intensity with increase of the volume ratio of water [1]: increased
fluorescence intensity ([1]; water 90% (Experimental Example 910), water 0 to 90% tested): highest fluorescence intensity
color of observed fluorescence [1]: green
emission wavelength [1]: about 550 nm
color of fluorescence [2]: green
emission peak [2]: about 525 nm
fluorescence intensity [2]: low fluorescence intensities
change of fluorescence intensity ([2]; pH decreased to 4 and 3): slightly increased
change of fluorescence intensity ([2]; pH decreased to 5): significantly increased
Compound: O=C(O)C[C@H](NC(=O)[C@H](CC(=O)O)NC(=O)[C@H](Cc1ccccc1)NC(=O)CN1C(=O)c2cccc3c(N4CCCCC4)ccc(c23)C1=O)C(=O)O [III-23]

color of fluorescence [2]: green
emission peak [2]: about 525 nm
fluorescence intensity [2]: low fluorescence intensities
change of fluorescence intensity ([2]; pH decreased to 4 and 3): significantly increased
change of fluorescence intensity ([2]; pH decreased to 5): significantly increased
Compound: O=C(O)CCC(NC(=O)C(CCC(=O)O)NC(=O)C(CCC(=O)O)NC(=O)[C@H](Cc1ccccc1)NC(=O)CN1C(=O)c2cccc3c(N4CCCCC4)ccc(c23)C1=O)C(=O)O (some centres unmarked) [III-27] (X2-F[ξE][ξE][ξE]-OH)

fluorescence intensity with increase of the volume ratio of water [1]: increased
ratio of fluorescence intensity Experimental Example 1511 to 1501 (0% water) ([1]; emission wavelength of 410 nm): 100 times
fluorescence intensity ([1]; water 0 to 80%): lower than 100 fluorescent units
fluorescence intensity ([1]; water 90%): 200 fluorescent units
fluorescence intensity ([1]; water 99%): about 700 fluorescent units
color of observed fluorescence [1]: blue violet
Compound: O=C(CNC(=O)CNC(=O)CN1C(=O)c2cccc3cccc(c23)C1=O)NCC(=O)NCC(=O)NCC(=O)NC(Cc1ccc(O)cc1)C(=O)O (centres unmarked) [III-30] ({Acetyl(1,8-naphthalimido)}-GGGGG[ξY]-OH)

— patent publication US10222381B2, “Water-soluble peptide fluorescence material” (NATIONAL CHIAO TUNG UNIVERSITY, priority 2015, dated 2019)
